Assay results: PMC6829886, “Inhibition of Non-Small Cell Lung Cancer Cells by Oxy210, an Oxysterol-Derivative that Antagonizes TGFβ and Hedgehog Signaling” (Cells, 2019)

Assays:
A549 cells [1] = test: Cell counting (proliferation) assay in A549 cells; type: cell-based, human; settings: A549 cells, CP alone
Description: A549 and H2030 cells cultured in RPMI 1640 containing 5% FBS in 12 well-plates at 20% confluence were treated with Oxy210 for 6 days and then trypsinized, spun down and resuspended in fresh medium. For the Carboplatin (CP) and Oxy210 co-treatment experiments, A549 cells cultured in RPMI 1640 containing 2% FBS in 12 well-plates at 20% confluence were treated with CP at different concentrations in the presence or absence of Oxy210 for 6 days. For the TGFβ-induced drug resistance assay, A549 cells cultured in RPMI 1640 containing 2% FBS in 12 well-plates at 10% confluence were pre-treated with TGFβ1 alone or together with Oxy210 for 3 days, and then treated with 20 μM CP for 4 days. An aliquot of cell suspension was applied to a hemocytometer and the cells were then counted under a light microscope.
Statistical analyses were performed using the StatView 5 program (SAS Institute, Cary, NC, USA). All p values were calculated using ANOVA and Fisher’s projected least significant difference (PLSD) significance test. A value of p < 0.05 was considered significant. The IC 50 dose-response curves shown in Figure 4b and Figure 7a–c were modeled using a five-parameter logistic model. This model allows for asymmetric curves and automatically estimates the mean maximum and minimum response. Based on this model, IC 50 values were estimated corresponding to the dose halfway between min and max response. Models of dose versus response and dose versus log response were also evaluated (see Supplementary Materials). The R square statistic was computed as a measure of model fit.
Figure 7 Inhibition of NSCLC cell proliferation by Oxy210. A549 (a), (c) and H2030 (b) cells were treated with the test agents as indicated in RPMI 1640 containing 5% FBS for 5 days and then were trypsinized and counted as described in Methods and Materials section. Data from a representative experiment are reported as the mean of triplicate determinations ± SD (* p < 0.05 vs. control; ** p < 0.01 vs. control).

[2] = test system: TGFβ signaling in NIH3T3-E1 cells; test: TGFβ target gene expression (Q-RT-PCR) in NIH3T3 cells; type: cell-based, mouse; settings: for expression of CTGF induced by TGFβ: NIH3T3 cells, TGFβ 20 ng/mL, 48 h (Figure 4e); for TGFβ inhibitory properties: statement in Discussion
Description: Total RNA was extracted with the RNeasy Plus Mini Kit from Qiagen (Hilden, Germany) according to the manufacturer’s instructions. One microgram of RNA was reverse-transcribed using an iScript Reverse Transcription Supermix from Bio-Rad Laboratories (Hercules, CA, USA) to make single-stranded cDNA. The cDNAs were then mixed with Qi SYBR Green Supermix (Bio-Rad) for quantitative RT-PCR assay using a Bio-Rad I-cycler IQ quantitative thermocycler. All PCR samples were prepared in triplicate wells in a 96-well plate. After 40 cycles of PCR, melt curves were examined in order to ensure primer specificity. Fold changes in gene expression were calculated using the ΔΔCt method. Primers used for mouse were as follows: Oaz1 (5′-CCACTGCTTCGCCAGAGAG-3′) and (5′-CCCGGACCCAGGTTACTA-3′), Gli1 (5′- […]-3′ and 5′- GCT GATCCAGCCTAAGGTTCTC-3′), Ptch1 (5′-CCATCGGCGACAAGAACC-3′ and 5′-[…]-3′), Thbs1 (5′-[…]-3′ and 5′-CGGGGATCAGGTTGGCATT-3′), Cryab (5′-[…]-3′ and 5′-[…]-3′), Egr2 (5′-[…]-3′ and 5′-[…]-3′), CTGF (5′-GGGCCTCTTCTGCGATTTC-3′ and 5′-[…]-3′).
Figure 4 Inhibition of ligand-induced Hedgehog and TGFβ signaling in mouse fibroblast cells. NIH3T3 cells were pretreated for 2 h with Oxy210 or various inhibitors as indicated in DMEM containing 5% FBS. Next, cells were treated with CAPAN-1 conditioned medium (CM) in the absence or presence of oxysterols or inhibitors. After 72 h, RNA was extracted and analyzed by Q-RT-PCR for the expression of Hh target genes Gli1 and Ptch1 and normalized to Oaz1 expression (a,b). (c,e) NIH3T3 cells were treated in DMEM containing 0.1% BCS overnight and then pretreated for 2 h with the inhibitors as indicated in DMEM containing 0.1%BCS. The cells were then treated with TGFβ (20ng/mL) in the absence or presence of the compounds. After 48 h, RNA was extracted and analyzed by Q-RT-PCR for the expression of TGFβ target genes as indicated and normalized to Oaz1 expression. (d) NIH3T3 cells cultured in 24 well-plates were transfected with a Smad response element reporter (SBE-Luciferase) plasmid and a pTK-Renilla-Luciferase plasmid. 6 hrs after transfection, cells were treated with the test agents as indicated for 48 hrs. Luciferase activity was measured and normalized to the Renilla luciferase activity. Data from a representative experiment are reported as the mean of triplicate determinations ± SD (** p < 0.01 vs. CM (a,b) or TGFβ (c,d and e) treated cells; ## p < 0.01 vs. control).

[3] = Metabolic stability in human liver microsomes; type: in vitro ADME
[4] = Metabolic stability in mouse liver microsomes; type: in vitro ADME
Smo = test system: Smo; design: method as in PMID 24591126; settings: cited from earlier work
Human TGFBR1 = target: T1, Human TGFBR1 (Homo sapiens, UniProt P36897); test: TGFβ receptor I kinase inhibition assay (Eurofins); type: biochemical; settings: vs. positive controls Cdk1/2 Inhibitor III and PKR Inhibitor
T1 construct: Human TGFBR1 (amino acid 200 to end); purchased Eurofins
T1 sequence (P36897 200-503 limits assumed): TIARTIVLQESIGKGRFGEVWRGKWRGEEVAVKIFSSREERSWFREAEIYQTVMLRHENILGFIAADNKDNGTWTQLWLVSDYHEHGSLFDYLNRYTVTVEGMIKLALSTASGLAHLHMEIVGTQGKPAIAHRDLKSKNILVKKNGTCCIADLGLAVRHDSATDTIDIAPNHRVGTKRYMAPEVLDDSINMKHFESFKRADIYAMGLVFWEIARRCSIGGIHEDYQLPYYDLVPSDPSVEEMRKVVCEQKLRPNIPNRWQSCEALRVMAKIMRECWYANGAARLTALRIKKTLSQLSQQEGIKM
Description: (§1) Effect of Oxy210 on inhibition of TGFβ receptors I and II kinase activity was assessed by Eurofins (Celle-L’Evescault, France). TGFBR1 (h): Human TGFBR1 (amino acid 200 to end) was incubated with 8 mM MOPS pH 7.0, 0.2 mM EDTA, 1 mM MnCl2, 2 mg/mL casein, 10 mM Magnesium acetate and […] (specific activity and concentration as required). The reaction was initiated by the addition of the Mg/ATP mix. After incubation for 40 min at room temperature, the reaction was stopped by the addition of phosphoric acid to a concentration of 0.5%. 10 μL of the reaction was then spotted onto a P30 filtermat and washed four times for 4 min in 0.425% phosphoric acid and once in methanol prior to drying and scintillation counting. TGFBR2 (h): Human TGFBR2 (amino acid 188-end) was incubated with 20 mM Tris/HCl pH 8.5, 0.2 mM EDTA, 0.33 mg/mL MBP, 10 mM Magnesium acetate and [9-33P-ATP] (specific activity and concentration as required). The reaction was initiated by the addition of the Mg/ATP mix. After incubation for 120 min at room temperature, the reaction was stopped by the addition of phosphoric acid to a concentration of 0.5%. […]
(§2) Figure 11 Inhibition of TGFβ-induced Smad2/3 phosphorylation and transcriptional activity. […] Luciferase activity was measured and normalized to the Renilla luciferase activity. […]

Human TGFBR2 = target: T2, Human TGFBR2 (Homo sapiens, UniProt P37173); test: TGFβ receptor II kinase inhibition assay (Eurofins); type: biochemical; settings: vs. positive controls Cdk1/2 Inhibitor III and PKR Inhibitor
T2 construct: Human TGFBR2 (amino acid 188-end); purchased Eurofins
T2 sequence (P37173 188-567 limits assumed): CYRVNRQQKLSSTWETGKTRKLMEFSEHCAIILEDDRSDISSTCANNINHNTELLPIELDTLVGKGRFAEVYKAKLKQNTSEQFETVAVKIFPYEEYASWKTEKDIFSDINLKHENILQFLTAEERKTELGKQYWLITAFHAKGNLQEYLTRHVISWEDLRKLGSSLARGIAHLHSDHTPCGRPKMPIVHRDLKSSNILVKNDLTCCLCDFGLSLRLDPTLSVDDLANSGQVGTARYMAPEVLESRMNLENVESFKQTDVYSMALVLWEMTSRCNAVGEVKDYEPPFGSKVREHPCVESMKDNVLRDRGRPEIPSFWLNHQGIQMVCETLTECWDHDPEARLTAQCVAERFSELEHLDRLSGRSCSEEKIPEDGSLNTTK
Description: as §1, §2

[5] = test system: TGFβ induced activity of SBE-luciferase reporter; test: SBE-luciferase (Smad response-element) reporter assay in NIH3T3-E1 cells; type: cell-based, mouse; settings: 48 hrs
Description: NIH3T3-E1 cells cultured in 24 well-plates at 90% confluence were transiently transfected with 0.1 μg of Smad response-element reporter (SBE-Luciferase) plasmid (Qiagen), or with 0.1 μg of Gli response-element reporter (pGL3b-8xGli-Luciferase) plasmid, and 10 ng of pSV40-Renilla-Luciferase plasmid (Promega, Madison, WI, USA) with or without co-transfection with 10ng of Gli1 overexpression vector, pSRα-Gli1 using a Lipofectamine LTX Plus transfection reagent, as previously described [23]. […] 6 hrs after transfection, cells were treated with test agents for 72 h. […] Twenty-four hours after transfection, cells were treated with test agents for 20 h. Then the firefly and Renilla luciferase activities were measured using a dual luciferase kit (Promega) and a GloMax-96 Microplate Luminometer (Promega) or a plate reader-SpectraMax iD3 (Molecular Devices, San Jose, CA, USA). The firefly luciferase activities were normalized to the Renilla luciferase activities.

A549 cells [6] = test system: A549 cells; design: method as in PMID 15967103; settings: consistent with own observations; cited from earlier work

## [NH2][Pt]1([NH2])[O]C(=O)C2(CCC2)C(=O)[O]1 [CP, Carboplatin, reference compound]
A549 cells [1]; original scale Y
  IC10 Estimate, dataset 4.1 - Fig 7c - CP: 0.66 µM
A549 cells [1]; original scale Y, read-out: IC90 Estimate, dataset 4.1 - Fig 7c - CP
  IC90: 40.7 µM
A549 cells [1]; ± SE, read-out: IC50 of CP
  IC50: 6.72 ± 0.72 µM

## CS(=O)(=O)c1ccc(C(=O)Nc2ccc(Cl)c(-c3ccccn3)c2)c(Cl)c1 [GDC0449]
[2]
  expression of CTGF induced by TGFβ: only Oxy210 robustly inhibited

## CC(C)CC[C@@H](O)[C@](C)(O)[C@H]1CC[C@H]2[C@@H]3CC=C4C[C@@H](O)CC[C@]4(C)[C@H]3CC[C@]12C [Oxy16, (2R,3R)-2-((3S,8S,9S,10R,13S,14S,17S)-3-hydroxy-10,13-dimethyl-2,3,4,7,8,9,10,11,12,13,14,15,16,17-tetradecahydro-1H-cyclopenta[a]phenanthren-17-yl)-6-methylheptane-2,3-diol, reference compound]
[2]
  TGFβ inhibitory properties: devoid of TGFβ inhibitory properties
[3]; human, liver microsomes, read-out: HLM, Half-Life
  half-life: < 15 min
[3]; read-out: HLM, % Remaining after 60 min
  remaining at 1 h: 6%
[4]; read-out: MLM, % Remaining after 60 min
  remaining at 1 h: 5%
[4]; read-out: MLM, Half-Life
  half-life: 14 min
Smo
  Smo binding affinity: lack of detectable Smo binding affinity

## C[C@]12CC[C@H](O)C[C@@H]1CC[C@@H]1[C@@H]2CC[C@@]2(C)[C@H]1CC[C@@H]2[C@](C)(O)CCc1ccc(F)cc1 [Oxy186, reference compound]
[2]
  expression of CTGF induced by TGFβ: only Oxy210 robustly inhibited
  TGFβ inhibitory properties: devoid of TGFβ inhibitory properties
Human TGFBR1
  inhibitory activity on TβRI in functional kinase assay: did not display significant inhibitory activity
Human TGFBR2
  inhibitory activity on TβRII in functional kinase assay: did not display significant inhibitory activity

## NC(=O)c1ccc(-c2nc(-c3ccc4c(c3)OCO4)c(-c3ccccn3)[nH]2)cc1 [SB431542, reference compound]
[5]
  TGFβ induced activity of SBE-luciferase reporter: significantly inhibited
A549 cells [6]
  effect on proliferation of A549 cells: does not lessen the proliferation of A549 cells
